US20180009797A1, “AZA-ARYL 1H-PYRAZOL-1-YL BENZENE SULFONAMIDES” (ChemoCentryx, Inc., priority 2016, published 2018)

These compounds were tested against T1, CCR(9) (Homo sapiens, UniProt P51686) (assay: calcium mobilization assay (FLIPR, MOLT-4 cells, hTECK)). Settings: read-out: CCR(9) Ca^2+.
T1 construct: CCR(9)-expressing cells such as T cell line MOLT-4 cells; host or cells: MOLT-4 T cell line
T1 sequence (P51686 1-369): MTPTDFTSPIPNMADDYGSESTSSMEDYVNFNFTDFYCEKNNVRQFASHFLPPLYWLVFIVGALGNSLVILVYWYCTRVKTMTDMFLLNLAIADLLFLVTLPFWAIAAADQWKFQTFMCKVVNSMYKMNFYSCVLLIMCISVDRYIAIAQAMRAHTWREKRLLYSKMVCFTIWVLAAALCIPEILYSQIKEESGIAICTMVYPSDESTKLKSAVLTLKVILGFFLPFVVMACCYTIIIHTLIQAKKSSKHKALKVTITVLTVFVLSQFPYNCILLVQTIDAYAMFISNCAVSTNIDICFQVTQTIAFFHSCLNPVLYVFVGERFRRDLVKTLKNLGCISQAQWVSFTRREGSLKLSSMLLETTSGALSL
Type: cell-based
Description: In calcium signaling assays used to determine the ability of a compound to interfere with binding between a chemokine receptor and a known chemokine ligand, chemokine receptor-expressing cells (CCR(9)-expressing cells such as T cell line MOLT-4 cells) are first incubated with a compound of interest, such as a potential chemokine antagonist, at increasing concentrations. The cell number can be from 10^5 to 5×10^6 cells per well in a 96-well microtiter plate. The concentration of the compound being tested may range from 0 to 100 μM. After a period of incubation (which can range from 5 to 60 minutes), the treated cells are placed in a Fluorometric Imaging Plate Reader (FLIPR®) (available from Molecular Devices Corp., Sunnyvale, Calif.) according to the manufacturer's instruction. The FLIPR® system is well known to those skilled in the art as a standard method of performing assays. The cells are then stimulated with an appropriate amount of the chemokine ligand (TECK for CCR(9)) at 5-100 nM final concentration, and the signal of intracellular calcium increase (also called calcium flux) is recorded. The efficacy of a compound as an inhibitor of binding between the chemokine and the ligand can be calculated as an IC50 (the concentration needed to cause 50% inhibition in signaling) or IC90 (at 90% inhibition).
MOLT-4 cells were obtained from the American Type Culture Collection (Manassas, Va.) and cultured in RPMI tissue culture medium supplemented with 10% fetal calf serum (FCS) in a humidified 5% CO2 incubator at 37° C. Recombinant human chemokine proteins TECK was obtained from R&D Systems (Minneapolis, Minn.). ChemoTX® chemotaxis microchambers were purchased from Neuro Probe (Gaithersburg, Md.). CyQUANT® cell proliferation kits were purchased from Molecular Probes (Eugene, Oreg.). Calcium indicator dye Fluo-4 AM was purchased from Molecular Devices (Mountain View, Calif.).
A cytoplasmic calcium mobilization assay was used to determine the efficacy of potential receptor antagonists at blocking the signals mediated through chemokine receptors, such as CCR(9). This assay was routinely performed using the Fluorescent Imaging Plate Reader (FLIPR, Molecular Devices). MOLT-4 cells were labeled with the fluorescent-indicator dye Fluo-4 (Molecular Devices) according to the manufacturer's directions. After labeling, the cells were collected by centrifugation (400×g for 5 min at room temperature) and resuspended in HBSS to a cell density of 2.5×10^6 cells/mL. Test compounds were prepared in 100% DMSO at 100× the final concentration; generally, a range of concentrations of each compound were tested, with final concentrations from 0.1 nM to 10,000 nM. Labeled cells (300 μL) were mixed with compound or an equal volume of DMSO (3 μL) in a 96-well plate; after thorough mixing, 50 μL of this cell/compound mixture was added to each of four wells of a 384-well FLIPR plate. The chemokine agonist (i.e., hTECK), prepared in HBSS at a 5× concentration of the previously determined EC^50 concentration, was added to each well and resulting changes in the fluorescent intensity, indicative of chemokine receptor-mediated signaling, were recorded on the FLIPR.

IC50	SMILES
> 1000 nM	CC(C)(C)c1ccc(S(=O)(=O)Nc2cc(C(F)(F)F)nn2-c2cccc3cccnc23)cc1
< 100 nM	CCOc1ccc(S(=O)(=O)Nc2cc(C)nn2-c2cccc3ncccc23)cc1
< 100 nM	Cc1cc(NS(=O)(=O)c2ccc(C(C)(C)C)cc2)n(-c2cccc3[nH]c(=O)ccc23)n1
< 100 nM	Cc1cc(NS(=O)(=O)c2ccc(C3(C#N)CC3)cc2)n(-c2cccc3ncccc23)n1
< 100 nM	Cc1cc(NS(=O)(=O)c2ccc(C(C)(C)C)cc2)n(-c2ccc(N(C)C)c3ccccc23)n1
< 100 nM	Cc1cc(NS(=O)(=O)c2ccc(C(C)(C)C)cc2)n(-c2c(C)ccc3ncccc23)n1
< 100 nM	Cc1cc(NS(=O)(=O)c2ccc(N3CCOCC3)cc2)n(-c2cccc3ncccc23)n1
100 to 1000 nM	Cc1cc(NS(=O)(=O)c2ccc(C(C)(C)C)cc2C)n(-c2cccc3ncccc23)n1
< 100 nM	COc1cc(C(C)(C)C)ccc1S(=O)(=O)Nc1cc(C)nn1-c1cccc2ncccc12
< 100 nM	Cc1cc(NS(=O)(=O)c2ccc(C(C)(C)C)cc2)n(-c2ccnc3ccc(F)cc23)n1
< 100 nM	Cc1cc(NS(=O)(=O)c2ccc(C(C)(C)C)cc2)n(Cc2cccc3cnccc23)n1
< 100 nM	CC(C)(C)c1ccc(S(=O)(=O)Nc2cc(CC#N)nn2-c2cccc3ncccc23)cc1
< 100 nM	CC(C)Oc1ccc(S(=O)(=O)Nc2cc(C(C)(F)F)nn2-c2cccc3ncccc23)cc1
< 100 nM	CC(C)c1ccc(S(=O)(=O)Nc2cc(C(C)(F)F)nn2-c2cccc3ncccc23)cc1

More lines, now with the values behind:

SMILES	IC50
CC(C)(C)c1ccc(S(=O)(=O)Nc2cc(C(F)(F)F)nn2-c2ncnc3ccccc23)cc1	< 100 nM
Cc1cc(NS(=O)(=O)c2ccc3c(c2)CCC3(C)C)n(-c2cccc3ncccc23)n1	< 100 nM
Cc1cc(NS(=O)(=O)c2ccc3c(c2)CC(C)(C)O3)n(-c2cccc3ncccc23)n1	< 100 nM
Cc1cc(NS(=O)(=O)c2ccc(C(C)(C)C)cc2)n(-c2ncnc3ccccc23)n1	< 100 nM
COc1ccc(S(=O)(=O)Nc2cc(C)nn2-c2cccc3ncccc23)cc1	100 to 1000 nM
Cc1cc(NS(=O)(=O)c2ccc(C(C)(C)O)cc2)n(-c2cccc3ncccc23)n1	< 100 nM
CCc1ccc(S(=O)(=O)Nc2cc(C)nn2-c2cccc3ncccc23)cc1	< 100 nM
CC(C)c1cc(NS(=O)(=O)c2ccc(C(C)(C)C)cc2)n(-c2cccc3ncccc23)n1	100 to 1000 nM
COc1ccc2ncccc2c1-n1nc(C)cc1NS(=O)(=O)c1ccc(C(C)(C)C)cc1	< 100 nM
Cc1cc(NS(=O)(=O)c2ccc(OC(C)(C)C)cc2)n(-c2cccc3ncccc23)n1	100 to 1000 nM
Cc1cc(NS(=O)(=O)c2ccc(C(C)(C)C)cc2)n(-c2cccc3cnncc23)n1	> 1000 nM
Cc1cc(NS(=O)(=O)c2ccc(C(C)(C)C)cc2)n(-c2cccc3nccc(C)c23)n1	< 100 nM
CC(C)(C)c1ccc(S(=O)(=O)Nc2cc(CO)nn2-c2cccc3ncccc23)cc1	< 100 nM
Cc1cc(NS(=O)(=O)c2ccc(N3CCOCC3)c(F)c2)n(-c2cccc3ncccc23)n1	< 100 nM
CC(C)(C)c1ccc(S(=O)(=O)Nc2c3c(nn2-c2cccc4cnccc24)CCC3)cc1	< 100 nM
CC(C)(C)c1ccc(S(=O)(=O)Nc2cc(C3CC3)nn2-c2cccc3ncccc23)cc1	< 100 nM
Cc1cc(NS(=O)(=O)c2ccc(C(C)(C)C)cc2)n(-c2ncc(C)c3ccccc23)n1	< 100 nM
Cc1cc(NS(=O)(=O)c2ccc(C(C)(C)C)cc2)n(-c2ccc3ccccc3n2)n1	100 to 1000 nM
Cc1cc(NS(=O)(=O)c2ccc(C(C)(C)C)cc2)n(-c2ccc(Cl)c3nccc(C)c23)n1	< 100 nM
Cc1cnc2cccc(-n3nc(C)cc3NS(=O)(=O)c3ccc(C(C)(C)C)cc3)c2c1	100 to 1000 nM
Cc1cc(NS(=O)(=O)c2ccc(C(C)(C)C)cc2)n(-c2ccc3ncccc3c2)n1	< 100 nM
Cc1nn(-c2cccc3ncccc23)c(NS(=O)(=O)c2ccc(C(C)(C)C)cc2)c1F	< 100 nM
Cc1cc(NS(=O)(=O)c2ccc(C(C)(C)C)cc2)n(Cc2cccc3ncccc23)n1	100 to 1000 nM
Cc1cc(NS(=O)(=O)c2ccc(C(C)(C)C)cc2)n(-c2cc3ccccc3cn2)n1	< 100 nM
Cc1cnc2c(Cl)ccc(-n3nc(C)cc3NS(=O)(=O)c3ccc(C(C)(C)C)cc3)c2c1	< 100 nM
Cc1cc(NS(=O)(=O)c2ccc3c(c2)CCC(C)(C)O3)n(-c2cccc3ncccc23)n1	< 100 nM
CC(C)(C)c1ccc(S(=O)(=O)Nc2cc(C(N)=O)nn2-c2cccc3ncccc23)cc1	100 to 1000 nM
CC(C)(C)c1ccc(S(=O)(=O)Nc2cc(C(C)(F)F)nn2-c2cccc3ncccc23)cc1	< 100 nM
Cc1cc(NS(=O)(=O)c2ccc(C(C)(C)C)cc2)n(-c2ccc3ccccc3c2)n1	< 100 nM
